Assays:
MRPS5 gene = assay: Antiaging-related gene expression in PBMC cells (qRT-PCR): MRPS5; format: cell-based, human; settings: 0.25 vol %, 24 hours, control group = 1.00
Source text: (§1) Herein, the tested antiaging-related genes are antiaging genes including CCT5 gene (Gene ID: 22948), CCT6A gene (Gene ID: 908), CCT7 gene (Gene ID: 10574), CCT8 gene (Gene ID: 10694), PARP2 gene (Gene ID: 10038), Parkin gene (Gene ID: 5071), Atg1 gene (Gene ID: 8408), Arg8 gene (Gene ID: 11345), FOX) gene (Gene ID: 2308), SIRT1 gene (Gene ID: 23411), […] gene (Gene ID: 55191), and MRPS3 gene (Gene ID: 64969). A medium used was an X-VIVOTM 15 serum-free hematopoietic cell medium (manufacturer: Lonza; product No.: 04-[…]) supplemented with 10 vol % of fetal bovine serum (FBS; brand: Gibco) and 1 vol % of penicillin/streptomycin (brand: Gibco), hereinafter referred to as a cell medium. […] Then, by using an ABI StepOnePlusTM Real-Time PCR system (Thermo Fisher Scientific Company, USA), KAPA SYBR FAST (purchased from Sigma Company, USA, No. 38220000000) and primers of Table 1 (SEQ ID NO: 1 to SEQ ID NO: 24), a quantitative real-time reverse transcription polymerase chain reaction was performed on the cDNA of each group to observe the expression levels of antiaging-related genes in PBMC cells. […] Herein, the quantitative real-time reverse transcription polymerase chain reaction of the cDNA can indirectly quantify an mRNA expression level of a gene, and then infer the expression level of protein encoded by the gene. […]

FOXO gene = assay: Antiaging-related gene expression in PBMC cells (qRT-PCR): FOXO; format: cell-based, human; settings: 0.25 vol %, 24 hours, control group = 1.00
Source text: as §1

Atg8 gene = assay: Antiaging-related gene expression in PBMC cells (qRT-PCR): Atg8; format: cell-based, human; settings: 0.25 vol %, 24 hours, control group = 1.00
Source text: as §1

Atg1 gene = assay: Antiaging-related gene expression in PBMC cells (qRT-PCR): Atg1; format: cell-based, human; settings: 0.25 vol %, 24 hours, control group = 1.00
Source text: as §1

SIRT1 gene = assay: Antiaging-related gene expression in PBMC cells (qRT-PCR): SIRT1; format: cell-based, human; settings: 0.25 vol %, 24 hours, control group = 1.00
Source text: as §1

PARP2 gene = assay: Antiaging-related gene expression in PBMC cells (qRT-PCR): PARP2; format: cell-based, human; settings: 0.25 vol %, 24 hours, control group = 1.00
Source text: as §1

CCT8 gene = assay: Antiaging-related gene expression in PBMC cells (qRT-PCR): CCT8; format: cell-based, human; settings: 0.25 vol %, 24 hours, control group = 1.00
Source text: as §1

CCT5 gene = assay: Antiaging-related gene expression in PBMC cells (qRT-PCR): CCT5; format: cell-based, human; settings: 0.25 vol %, 24 hours, control group = 1.00
Source text: as §1

Parkin gene = assay: Antiaging-related gene expression in PBMC cells (qRT-PCR): Parkin; format: cell-based, human; settings: 0.25 vol %, 24 hours, control group = 1.00
Source text: Herein, the tested antiaging-related genes are antiaging genes including CCT5 gene (Gene ID: 22948), CCT6A gene (Gene ID: 908), CCT7 gene (Gene ID: 10574), CCT8 gene (Gene ID: 10694), PARP2 gene (Gene ID: 10038), Parkin gene (Gene ID: 5071), Atg1 gene (Gene ID: 8408), Arg8 gene (Gene ID: 11345), FOX) gene (Gene ID: 2308), SIRT1 gene (Gene ID: 23411), NADSYN gene (Gene ID: 55191), and MRPS3 gene (Gene ID: 64969).
A medium used was an X-VIVO™ 15 serum-free hematopoietic cell medium (manufacturer: Lonza; product No.: 04-418Q) supplemented with 10 vol % of fetal bovine serum (FBS; brand: Gibco) and 1 vol % of penicillin/streptomycin (brand: Gibco), hereinafter referred to as a cell medium. […]
PBMC cells were collected from each group, and RNA of each group was extracted with an RNA extraction reagent kit (purchased from Geneaid, Taiwan, China, Lot No. FC24015-G). […] Then, by using an ABI StepOnePlus™ Real-Time PCR system (Thermo Fisher Scientific Company, USA), KAPA SYBR FAST (purchased from Sigma Company, USA, No. 38220000000) and primers of Table 1 (SEQ ID NO: 1 to SEQ ID NO: 24), a quantitative real-time reverse transcription polymerase chain reaction was performed on the cDNA of each group to observe the expression levels of antiaging-related genes in PBMC cells. […]

NADSYN gene = assay: Antiaging-related gene expression in PBMC cells (qRT-PCR): NADSYN; format: cell-based, human; settings: 0.25 vol %, 24 hours, control group = 1.00
Source text: as §1

CCT7 gene = assay: Antiaging-related gene expression in PBMC cells (qRT-PCR): CCT7; format: cell-based, human; settings: 0.25 vol %, 24 hours, control group = 1.00
Source text: as §1

CCT6A gene = assay: Antiaging-related gene expression in PBMC cells (qRT-PCR): CCT6A; format: cell-based, human; settings: 0.25 vol %, 24 hours, control group = 1.00
Source text: as §1

[1] = test system: mouse brain neuroblastoma cells (Neuro2a); assay: Mitochondrial activity (JC-1 mitochondrial membrane potential, flow cytometry); format: cell-based; settings: 0.25 vol %, 24 hours, control group = 100%
Source text: A medium used was a DMEM medium (Dulbecco's Modified Eagle Medium; brand: Gibco) supplemented with 10 vol % of fetal bovine serum (FBS; brand: Gibco) and 1 vol % of penicillin/streptomycin (brand: Gibco), hereinafter referred to as a cell medium. A mitochondrial activity test method used was to use a mitochondrial membrane potential detection kit (BD™ MitoScreen (JC-1) kit, model 551302) to measure the mitochondrial membrane potential and perform mitochondrial activity analysis. The mitochondrial membrane potential detection kit included a JC-1 stain (freeze-dried) and a 10×assay buffer. Before use, the 10×assay buffer was diluted 10 times with 1×PBS to form a 1×assay buffer. 130 μL of DMSO was added to the JC-1 stain (freeze-dried) to form a JC-1 stock solution. Then, the JC-1 stock solution was diluted with the 1×assay buffer to form a JC-1 working solution (JC-1 mitochondrial specific stain). The dilution ratio of the JC-1 stock solution to the 1×assay buffer was 1:100.
First, 1×10^5 mouse neuroblastoma cells (ATCC CCL-131; hereinafter referred to as Neuro2a cells) were added into a six-well cell culture plate containing 2 mL of the above cell medium per well, and cultured at 37° C. for 24 hours. […]

[2] = test system: mouse brain neuroblastoma cells (Neuro2a); assay: Inhibition of ROS generation (hydrogen peroxide treatment), DCFH-DA flow cytometry; format: cell-based
Method: A medium used was a DMEM medium (Dulbecco's Modified Eagle Medium; brand: Gibco) supplemented with 10 vol % of fetal bovine serum (FBS; brand: Gibco) and 1 vol % of penicillin/streptomycin (brand: Gibco), hereinafter referred to as a cell medium. A DCFH-DA solution used was a reaction solution prepared by dissolving 2,7-dichloro-dihydro-fluorescein diacetate (DCFH-DA, product code SI-D6883, purchased from Sigma) in dimethyl sulfoxide (DMSO, purchased from Sigma, product code SI-D6883-50MG). […]
Flow cytometry (manufacturer: Beckman; Catalog No. 660519) was used to detect a fluorescence signal of DCFH-DA in the cell solutions to be assayed in each group. The excitation wavelength of fluorescence detection used was 450 nm to 490 nm, and the emission wavelength was 510 nm to 550 nm. Since DCFH-DA will first be hydrolyzed to DCFH (dichloro-dihydro-fluorescein) after entering the Neuro2a cells, and then oxidized by reactive oxygen species (ROS) into DCF (dichloro-fluorescein) that emits green fluorescence, the fluorescence intensity of the Neuro2a cells treated with the DCFH-DA can reflect the content of reactive oxygen species (ROS) in the Neuro2a cells, and from this, the ratio of the number of cells with highly expressed reactive oxygen species (ROS) in the Neuro2a cells to the number of original cells can be known.

SMILES: NC(=O)c1ccc[n+]([C@@H]2O[C@H](COP(=O)([O-])O)[C@@H](O)[C@H]2O)c1 [nicotinamide mononucleotide]
- relative expression of the MRPS5 gene (MRPS5 gene): 0.80
- relative expression of the FOXO gene (FOXO gene): 0.79
- relative expression of the Atg8 gene (Atg8 gene): 1.02
- relative expression of the Atg1 gene (Atg1 gene): 1.25
- relative expression of the SIRT1 gene (SIRT1 gene): 4.30
- relative expression of the PARP2 gene (PARP2 gene): 0.67
- relative expression of the CCT8 gene (CCT8 gene): 1.72
- relative expression of the CCT5 gene (CCT5 gene): 1.55
- relative expression of the Parkin gene (Parkin gene): 1.61
- relative expression of the NADSYN gene (NADSYN gene): 5.84
- relative expression of the CCT7 gene (CCT7 gene): 1.0672
- relative expression of the CCT6A gene (CCT6A gene): 1.62
- relative JC-1 accumulation [1]: 42.93%
- relative ROS production ([2]; 24 h with 0.25 vol % yeast powder or 10 μL of 200 mM synthetic NMN, then hydrogen peroxide 1 hour, blank group = 100%, H2O2 control group 487.6%): 452.5%
- decrease in relative ROS production versus H2O2 control (percentage points, blank = 100%) ([2]; hydrogen peroxide, versus control group 487.6%): 35.1%
